# Source: US20200405715A1, “COMPOSITIONS AND METHODS FOR TREATING CANCER AND INFLAMMATORY DISEASES” (University of Pittsburgh - Of the Commonwealth System of …, priority 2016, published 2020)
# pIC50: −log10 of the molar value.
# Tested on: DSS induced colonic inflammation
# Assay: DSS induced colitis model
# Assay type: in vivo, C57BL6 mice
# Settings: DSS in water, compounds in drinking water at 10 mg/kg/d (FIG. 12A-B)
# Procedure: FIGS. 12A-12D show DCN1 inhibitors reduce DSS induced colonic inflammation, specifically the following experimental results C57BL6 mice were fed with water ad lib containing 3% dextran sulfate sodium (DSS) for six days. DCN1 inhibitors were administered into drinking water at 10 mg/kg/d, starting at day 1. […] The data represent n=4 mice/group, *P<0.05 versus CON.
# Also tested were 3-(decylamino)-5-phenylcyclohex-2-en-1-one (BC1558), 3-(dibenzylamino)-5-phenylcyclohex-2-en-1-one (BC1634) and 3-((4-phenoxybenzyl)amino)-5-phenylcyclohex-2-en-1-one (BC1653) in a mouse colitis model to confirm its anti-inflammatory activity. Briefly, C57BL6 mice were fed with water containing 3.5% […] and colonic length was measured. DSS produced a significant decrease in colon length in mice, consistent with colonic inflammation (FIG. 12A-B). […] Colonic tissue cytokine levels were further analyzed.
row,SMILES,colon length compared vehicle
1,"O=C1C=C(NCc2ccc(Oc3ccccc3)cc2)CC(c2ccccc2)C1 (stereo not drawn) [BC1653, 3-((4-phenoxybenzyl)amino)-5-phenylcyclohex-2-en-1-one]",significant increase

# Same assay, conditions: DSS in water, compounds in drinking water at 10 mg/kg/d (FIG. 12C-D)
row,SMILES,IL1β and IL6 levels in colonic tissue compared to vehicle
1,"O=C1C=C(NCc2ccc(Oc3ccccc3)cc2)CC(c2ccccc2)C1 (stereo not drawn) [BC1653, 3-((4-phenoxybenzyl)amino)-5-phenylcyclohex-2-en-1-one]",large reduction

# Tested on: HepG2 tumor implants
# Assay: HepG2 tumor implants in nude mice, tumor growth
# Assay type: in vivo, athymic nude mice
# Settings: compounds in drinking water (15 mg/kg/d), start at tumor size 0.1 cm^3 (FIG. 8)
# Procedure: Mice were implanted with HepG2 cells (10^6 cells) through subcutaneous injection. 2 weeks later, once tumor size reaches ˜0.1 cm^3, mice were randomized and the treatment began by adding compounds to the drinking water ([…]). Tested compounds were: Vehicle, 3-(decylamino)-5-phenylcyclohex-2-en-1-one (BC1558), 3-(dibenzylamino)-5-phenylcyclohex-2-en-1-one (BC1634) or 3-((4-phenoxybenzyl)amino)-5-phenylcyclohex-2-en-1-one (BC1653). Tumor volume measurements over time were graphed (n=4-5 mice/group, *P<0.05 versus Vehicle).
# As a complementary in vivo model, tumorogenicity was further assessed after implanting HepG2 cells along with 3-(decylamino)-5-phenylcyclohex-2-en-1-one, 3-(dibenzylamino)-5-phenylcyclohex-2-en-1-one, 3-((4-phenoxybenzyl)amino)-5-phenylcyclohex-2-en-1-one treatment in athymic nude mice. Mice were implanted with HepG2 cells through subcutaneous injection. Two weeks later, once tumor size reached 0.1 cm^3, the mice were randomized and the treatment began by adding compounds to the drinking water (15 mg/kg/d).
row,SMILES,tumor size compared to the vehicle
1,"O=C1C=C(N(Cc2ccccc2)Cc2ccccc2)CC(c2ccccc2)C1 (stereo not drawn) [BC1634, 3-(dibenzylamino)-5-phenylcyclohex-2-en-1-one]",Significantly reduced tumor size
2,"O=C1C=C(NCc2ccc(Oc3ccccc3)cc2)CC(c2ccccc2)C1 (stereo not drawn) [BC1653, 3-((4-phenoxybenzyl)amino)-5-phenylcyclohex-2-en-1-one]",Significantly reduced tumor size

# Tested on: Nedd8-cullin
# Assay: Cullin neddylation, protein immunoblotting in HepG2 cells
# Assay type: cell-based
# Settings: 48 h at 10 uM (FIG. 2)
# Description: Cells were then collected and assayed for protein immunoblotting. […]
# DCN1 protein is believed to harbor a UBC12 binding pocket. Scott et al, Cell 757:1671-84 (2014). […] Scott et al. (2014). The N-terminal acetylation acts as an avidity enhancer within an interconnected multiprotein complex. Science, 554:674-8 (2011). Specifically, n-terminal of UBC12 is acetylated (FIG. 1A, yellow) and completely buried inside the hydrophobic pocket within DCN1 (4gao.PDB, FIG. 1B). Small molecule inhibition of the DCN1 hydrophobic pocket would presumably disrupt UBC12 binding, and thus disrupt Neddylation of Cullin protein. Potential ligands were assessed that might fit the DCN1 domain cavities (FIG. 1B). 3-(pentylamino)-5-phenylcyclohex-2-en-1-one was selected for future testing (FIG. 1C). […] MLN4924 was used as a positive control.
row,SMILES,reducing cullin1 neddylation
1,CCCCCNC1=CC(=O)CC(c2ccccc2)C1 (stereo not drawn) [3-(pentylamino)-5-phenylcyclohex-2-en-1-one],good activity

# Tested on: HepG2 cells
# Assay: HepG2 cell proliferation (CellTiter-Glo Luminescent Cell Viability Assay)
# Assay type: cell-based
# Settings: Homo sapiens, 96 h, ATP production, n=3, read-out: IC50Proliferation
# Procedure: Cell proliferation were then measured by CellTiter-Glo® Luminescent Cell Viability Assay (n=3).
# 4KHepG2 cells were seeded in 96 well plates for overnight. Compounds listed in Table 3 were then added to each well at various concentrations. 96 h later, cell proliferation was measured by ATP production using a CellTiter-Glo® Luminescent Cell Viability Assay (Promega).
# 3-(pentylamino)-5-phenylcyclohex-2-en-1-one was modified by adding a different sidechain. These novel compounds were tested further in an in vitro proliferation assay using ATPLite Cell Proliferation kit. […] Others lost activity in reducing Cullin Neddylation and inhibiting cell proliferation (FIG. 3C-D).
row,pIC50,SMILES
1,5.00 to 6.00,CCCCCNC1=CC(=O)CC(c2ccccc2)C1 (stereo not drawn) [BC1526]
2,5.00 to 6.00,CC(C)CCNC1=CC(=O)CC(c2ccccc2)C1 (stereo not drawn) [BC1532]
3,< 5.00,O=C1C=C(NC2CCCCC2)CC(c2ccccc2)C1 (stereo not drawn) [BC1534]
4,5.00 to 6.00,O=C1C=C(NCCc2ccccc2)CC(c2ccccc2)C1 (stereo not drawn) [BC1535]
5,< 5.00,CCC(C)NC1=CC(=O)CC(c2ccccc2)C1 (stereo not drawn) [BC1546]
6,5.00 to 6.00,O=C1C=C(NCc2ccccc2)CC(c2ccccc2)C1 (stereo not drawn) [BC1548]
7,< 5.00,O=C1C=C(NC23CC4C[C@H](C2)C[C@@H](C4)C3)CC(c2ccccc2)C1 (stereo partly drawn) [BC1549]
8,5.00 to 6.00,O=C1C=C(NC2C[C@@H]3CCC2C3)CC(c2ccccc2)C1 (stereo partly drawn) [BC1550]
9,> 6.00,CCCCCCCNC1=CC(=O)CC(c2ccccc2)C1 (stereo not drawn) [BC1552]
10,> 6.00,CCCCCCCCNC1=CC(=O)CC(c2ccccc2)C1 (stereo not drawn) [BC1554]
11,> 6.00,CCCCCCCCCNC1=CC(=O)CC(c2ccccc2)C1 (stereo not drawn) [BC1556]
12,> 6.00,CCCCCCCCCCCNC1=CC(=O)CC(c2ccccc2)C1 (stereo not drawn) [BC1560]
13,> 6.00,CCCCCCCCCCCCNC1=CC(=O)CC(c2ccccc2)C1 (stereo not drawn) [BC1562]
14,< 5.00,CCCCCCCCCCCCCCCCNC1=CC(=O)CC(c2ccccc2)C1 (stereo not drawn) [BC1564]
15,< 5.00,O=C1C=C(NC(c2ccccc2)c2ccccc2)CC(c2ccccc2)C1 (stereo not drawn) [BC1621]
16,< 5.00,O=C1C=C(NC2CCCCCCCCCCC2)CC(c2ccccc2)C1 (stereo not drawn) [BC1623]
17,< 5.00,O=C1C=C(NC2CCC2)CC(c2ccccc2)C1 (stereo not drawn) [BC1625]
18,5.00 to 6.00,CC1(C)C2C[C@@H]1CCC2CNC1=CC(=O)CC(c2ccccc2)C1 (stereo partly drawn) [BC1627]
19,> 6.00,O=C1C=C(NCc2ccc(-c3ccccc3)cc2)CC(c2ccccc2)C1 (stereo not drawn) [BC1629]
20,> 6.00,O=C1C=C(NCc2cccc(-c3ccccc3)c2)CC(c2ccccc2)C1 (stereo not drawn) [BC1631]
21,< 5.00,O=C1C=C(NCC2CCCCC2)CC(c2ccccc2)C1 (stereo not drawn) [BC1633]
22,5.00 to 6.00,Cc1ccccc1-c1cccc(CNC2=CC(=O)CC(c3ccccc3)C2)c1 (stereo not drawn) [BC1640]
23,< 5.00,Cc1ccccc1-c1cccc(CNC2=CC(=O)CC(c3ccc4c(c3)OCO4)C2)c1 (stereo not drawn) [BC1641]

row,pIC50,SMILES
1,< 5.00,CCCCCCCCCCNC1=CC(=O)CC(c2ccc3c(c2)OCO3)C1 (stereo not drawn) [BC1644]
2,> 6.00,CCCCCCCCCCNC1=CC(=O)CC(c2ccco2)C1 (stereo not drawn) [BC1646]
3,5.00 to 6.00,CCCCCCCCCCNC1=CC(=O)CC(c2ccc(F)cc2)C1 (stereo not drawn) [BC1648]
4,5.00 to 6.00,O=C1C=C(NCc2cccc(-c3ncccn3)c2)CC(c2ccccc2)C1 (stereo not drawn) [BC1650]
5,> 6.00,O=C1C=C(NCc2cccc(Oc3ccccc3)c2)CC(c2ccccc2)C1 (stereo not drawn) [BC1651]
6,> 6.00,"O=C1C=C(NCc2ccc(Oc3ccccc3)cc2)CC(c2ccccc2)C1 (stereo not drawn) [BC1653, 3-((4-phenoxybenzyl)amino)-5-phenylcyclohex-2-en-1-one]"
7,< 5.00,Cc1cccc(N2CCC(NC3=CC(=O)CC(c4ccccc4)C3)CC2)c1 (stereo not drawn) [BC1654]
8,< 5.00,O=C1C=C(Nc2cnc(-c3ccccc3)nc2)CC(c2ccccc2)C1 (stereo not drawn) [BC1655]
9,< 5.00,O=C1C=C(NCc2cnc(Nc3ccccc3)nc2)CC(c2ccccc2)C1 (stereo not drawn) [BC1656]
10,5.00 to 6.00,O=C1C=C(NCc2cnc(-c3ccccc3)nc2)CC(c2ccccc2)C1 (stereo not drawn) [BC1657]
11,< 5.00,O=C1C=C(NCc2nc3ccccc3[nH]2)CC(c2ccccc2)C1 (stereo not drawn) [BC1658]
12,> 6.00,O=C1C=C(NCc2ccc3[nH]c4ccccc4c3c2)CC(c2ccccc2)C1 (stereo not drawn) [BC1659]
13,5.00 to 6.00,COc1ccc(Oc2ccc(CNC3=CC(=O)CC(c4ccccc4)C3)cc2)cc1 (stereo not drawn) [BC1660]
14,< 5.00,CC(NC1=CC(=O)CC(c2ccccc2)C1)c1ccc(Oc2ccccc2)cc1 (stereo not drawn) [BC1661]
15,> 6.00,O=C1C=C(NCc2ccc(Oc3ccc(F)cc3)cc2)CC(c2ccccc2)C1 (stereo not drawn) [BC1662]
16,> 6.00,O=C1C=C(NCc2ccc(OC3CCCCC3)cc2)CC(c2ccccc2)C1 (stereo not drawn) [BC1663]
17,< 5.00,CN1CCC(c2ccc(CNC3=CC(=O)CC(c4ccccc4)C3)cc2)CC1 (stereo not drawn) [BC1664]
18,< 5.00,O=C1C=C(NCc2ccc(CN3CCCCC3)cc2)CC(c2ccccc2)C1 (stereo not drawn) [BC1665]
19,> 6.00,O=C1C=C(NCc2ccc(OC3CCCC3)cc2)CC(c2ccccc2)C1 (stereo not drawn) [BC1666]
20,< 5.00,CC1CC(C)CN(Cc2ccc(CNC3=CC(=O)CC(c4ccccc4)C3)cc2)C1 (stereo not drawn) [BC1667]
21,5.00 to 6.00,O=C1C=C(NCc2ccc(CN3CCOCC3)cc2)CC(c2ccccc2)C1 (stereo not drawn) [BC1668]
22,> 6.00,COc1cc(CNC2=CC(=O)CC(c3ccccc3)C2)ccc1OC1CCCC1 (stereo not drawn) [BC1669]
23,5.00 to 6.00,O=C1C=C(NCc2ccc3oc4ccccc4c3c2)CC(c2ccccc2)C1 (stereo not drawn) [BC1670]
